Consider 1 molecule from US20190211020A1 (Agency for Science, Technology and Research, priority 2012, published 2019).

“Also recorded” adds a separate entry of the source.

Assay [1] deals with patient-derived BC cells in NSG mice. Particulars: 40 mg/kg/d CGP or 5 mg/kg/d dasatinib for three weeks; read at 16 weeks; cited from earlier work.
The subject of assay [2] is active nuclear beta-catenin in BC GMPs. Particulars: background; cited from earlier work.
Assay [3] has as its system eIF4G levels in brain sections from Nlgn3 knock-out mice. Briefly: Immunoblot of eIF4G in brain slices of Nlgn3 knock-out mice. Also on record: species or system mouse. To be noted: 40 μM CGP57380 or 50 nM ETC7168. As for the experimental part: (§1) For biochemical analyses mice were sacrificed by CO2 inhalation, the cerebellum dissected and rapidly placed in a vibratome chamber and sectioned at 300 μm in cold oxygenated aCSF (in mM: 125 NaCl, 2.5 KCl, 1 MgCl2, 2 CaCl2, 1.25 NaH2PO4, 20 Glucose, 26 NaHCO3, 95% O2/5% CO2). Slices obtained were maintained at 33° C. in oxygenated aCSF and treated with 40 μM CGP57380 or 50 nM ETC7168 for 45 mins and tissues were subsequently snap frozen in liquid nitrogen. Tissues were lysed in 25 mM Tris-HCl, 150 mM NaCl, 1% Triton, 0.2% SDS, 5 mM EDTA, 2 mM DTT, 1 mM NaF, 1 mM Na3VO4 containing protease inhibitor cocktail. The soluble fractions were analyzed by immunoblotting with primary antibodies for 24 hrs at 4° C. followed by detection with secondary antibodies for enhanced chemoluminescent detection. Impact of MNK inhibitors on autism-related behavior was tested in a knock-out mouse model for autism. Nlgn3 knock-out mouse model a human mutation identified in patients with autism^73-74. Compounds were applied in DMSO using intraperitoneal injection in adult male mice (2-4 months of age). Two injections were performed, the first 30 h and a second one 5 h before testing. Behavioral testing was performed using a well-accepted test for autism that consists of quantitative analysis of ultrasonic vocalizations emitted by male mice exposed to females in estrous^75. The apparatus consisted of an arena (40 cm×20 cm) surrounded by 30-cm-high walls made of grey plastic and equipped with a microphone and a video camera. Prior to testing, the estrous cycle of each female mouse was assessed and only females in estrous were kept for testing. Male mice were acclimatized for 3 min in the chamber. Subsequently a female in estrous was introduced in the arena, and ultrasonic vocalizations were recorded for 3 min using the Avisoft system (Avisoft Bioacoustics) with a frequency bandwidth of 30 kHz to 100 kHz. The number and length of ultrasonic vocalizations were quantified. All animal experiments were approved by the cantonal veterinary office Basel-Stadt, Switzerland.
Background: Immunoblotting shows a protein as a band on a membrane.

The subject of assay [4] is eIF4E phosphorylation in BC GMPs. Particulars: background; cited from earlier work.
For assay [5], the system named is TNF production by macrophage. Particulars: stimulation with TLR agonists; background; cited from earlier work.
The subject of assay [6] is BC CD34+ CML cells. To be noted: background; cited from earlier work.
In assay [7] the test system is CD34+BC cells (including those carrying T315I mutation). Particulars: background; cited from earlier work.
Assay [8] concerns normal cord blood CD34+ cells. To be noted: background; cited from earlier work.
Assay [9] deals with eIF4E phosphorylation in cerebellar neurons in brain sections. Briefly: Immunoblot of phospho-eIF4E in mouse cerebellar brain slices. Particulars: 40 μM CGP57380 or 50 nM ETC7168 for 45 mins. The method, then:
as §1, with “Impact of MNK inhibitors on autism-related behavior was tested in a knock-out mouse model for autism. Nlgn3 knock-out mouse model a human mutation identified in patients with autism^73-74. Compounds were applied in DMSO using intraperitoneal injection in adult male mice (2-4 months of age). Two injections were performed, the first 30 h and a second one 5 h before testing.” left out, “The apparatus consisted of an arena (40 cm×20 cm) surrounded by 30-cm-high walls made of grey plastic and equipped with a microphone and a video camera.” left out, “Male mice were acclimatized for 3 min in the chamber.” left out, “All animal experiments were approved by the cantonal veterinary office Basel-Stadt, Switzerland.” left out

Assay [10] relates to normal CD34+ cells. To be noted: background; cited from earlier work.

With `Nc1ncnc2n[nH]c(Nc3ccc(F)cc3)c12` [CGP57380], the “serial transplantation of BC cells in NSG mice after in vivo treatment” value in [1] was “prevented BC cells from serially transplanting NSG mice”. Besides, the “accumulation of active nuclear beta-catenin in BC GMPs” value in assay [2] is reported as “prevents accumulation of active nuclear beta-catenin”. Further, the “eIF4G levels in brain sections from Nlgn3 knock-out mice” value in assay [3] was “elevation in eIF4G levels; also recorded: elevated eIF4G levels”. Besides, in assay [4], the “eIF4E phosphorylation in BC GMPs” value is recorded as “inhibited eIF4E phosphorylation”. Also, the “TNF production / release by macrophage” value in assay [5] is recorded as “inhibited; also recorded: inhibits the release of TNF alpha”. In assay [6], the “ability of BC CD34+ CML cells to engraft NSG mice after in vitro treatment” value is “retarded their ability to engraft NSG mice”. Besides, the “ability of CD34+ BC cells to serially replate for more than 8 weeks in methylcellulose” value in [7] was “impaired the ability”. Also, the “ability of normal cord blood CD34+ cells to engraft NSG mice after in vitro treatment” value in assay [8] was “not”. Moreover, the “eIF4E phosphorylation in cerebellar brain sections” value in assay [9] is on record as “inhibit eIF4E phosphorylation”. Further, the “ability of normal CD34+ cells to serially replate” value in [10] was “not”.
